The values that follow come from patent publication US11207312B2, “Metallo-beta-lactamase inhibitors and methods of use thereof” (priority 2017, dated 2021).

One series has as its target NDM-1 (Klebsiella pneumoniae, UniProt C7C422). The series can be described thus: biochemical. Type of series: biochemical. Conditions: CCF2-FA fluorescence assay, 2 hours at 25° C. The gist of the method:
(§1)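 In pH 7 phosphate buffer (100 mM) with 10 μM ZnSO4 and 0.005% Tween-20, CCF2-FA hydrolysis (1.25 μM) by 1 pM NDM-1, 2 pM IMP-1 or 30 pM VIM-1 was run 2 h at 25° C with inhibitor from 20 to 0.00063 μM. Ex 405/em 460 nm signal fitted to a 4-parameter curve for IC50.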

The target of another series is IMP-1 (Serratia marcescens, UniProt P52699). Briefly: biochemical. Conditions: CCF2-FA fluorescence assay, 2 hours at 25° C.; read-out: IMP1 IC50. The gist of the method: as §1
Chain of IMP-1 (P52699 whole entry, looked up, species assumed): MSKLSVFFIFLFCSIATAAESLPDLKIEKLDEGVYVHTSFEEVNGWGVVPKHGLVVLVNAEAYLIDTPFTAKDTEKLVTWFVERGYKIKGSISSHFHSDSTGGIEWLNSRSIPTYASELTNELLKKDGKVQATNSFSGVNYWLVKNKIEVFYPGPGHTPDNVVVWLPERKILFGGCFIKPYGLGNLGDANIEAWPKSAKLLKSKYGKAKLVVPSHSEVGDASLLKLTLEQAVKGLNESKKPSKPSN
A further series addresses VIM-1 (Pseudomonas aeruginosa (strain ATCC 15692 / DSM 22644 / CIP 104116 / JCM 14847 / LMG 12228 / 1C / PRS 101 / PAO1), UniProt A0A0F7KYQ8). The series can be described thus: biochemical. The settings on record: CCF2-FA fluorescence assay, 2 hours at 25° C.; read-out: VIM1 IC50. In a few lines:
as §1

The next series deals with VIM-2 (Escherichia coli, UniProt Q5U7L7). The series can be described thus: biochemical. The settings on record: CCF2-FA fluorescence assay; read-out: VIM2 IC50.
Series [1] has as its system Escherichia coli expressing NDM-1 (CLB30016). It is filed as cell-based. Conditions: with imipenem 1 μg/ml; 95% inhibition of bacterial growth. The gist of the method:
(§2)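 Each strain, diluted 1:100 from saline suspension into 1.1× CAMHB, was combined with imipenem held at 1 μg/ml and graded inhibitor. Growth after 22–24 h at 35 °C was measured by absorbance, and the lowest concentration achieving 95% inhibition defined MITC95.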

The subject of series [2] is Klebsiella pneumoniae expressing VIM-1 (IHMA599644). Type of series: cell-based. The settings on record: with imipenem 1 μg/ml; 95% inhibition of bacterial growth. The gist of the method:
as §2

For series [3], the system named is Serratia marcescens expressing IMP-1 (CL5741). Type of series: cell-based. Conditions: with imipenem 1 μg/ml; 95% inhibition of bacterial growth. The gist of the method: as §2
Series [4] concerns P. aeruginosa MB9798 (efflux+, IMP-1 plasmid). Conditions: for MB9798 MITC95 P. aeruginosa uM Efflux WT: efflux + (MB9798) strain, imipenem at 2 μg/mL, in the presence of a class A, C, D serine β-lactamase inhibitor closely related to relebactam; for Efflux ratio: fold difference between efflux+ (MB9798) and efflux− (MB9799) strains. The gist of the method:
(§3)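 PAO1-derived isogenic pair (oprD+, inducible AmpC), efflux+ MB5919 or efflux− MB5890 parent, carrying an electroporated IMP-1 plasmid from a clinical isolate. Microbroth MIC with fixed imipenem and/or ceftazidime (usually CLSI breakpoint) plus fixed class A/C inhibitor; MBL inhibitor serially titrated, concentration restoring susceptibility recorded.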

Series [5] has as its system P. aeruginosa MB9799 (efflux-, IMP-1 plasmid). Type of series: cell-based, Pseudomonas aeruginosa. The settings on record: efflux − (MB9799) strain; imipenem at 2 μg/mL; in the presence of a class A, C, D serine β-lactamase inhibitor closely related to relebactam. In a few lines: as §3

Chain of NDM-1 (C7C422 whole entry, looked up, species assumed): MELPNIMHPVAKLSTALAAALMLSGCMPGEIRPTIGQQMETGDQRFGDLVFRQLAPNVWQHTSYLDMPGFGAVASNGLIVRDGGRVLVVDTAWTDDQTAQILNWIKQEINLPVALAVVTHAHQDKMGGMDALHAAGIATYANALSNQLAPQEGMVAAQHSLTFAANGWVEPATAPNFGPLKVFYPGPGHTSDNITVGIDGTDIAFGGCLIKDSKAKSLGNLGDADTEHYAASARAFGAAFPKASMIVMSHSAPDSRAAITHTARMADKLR

As to `NC[C@@H](O)CNS(=O)(=O)c1ccc(N2CCC(F)(CN)CC2)c(-c2nn[nH]n2)c1S(N)(=O)=O` [Example 3], the IC50 against NDM-1 was determined as 2.43 nM; at IMP-1, 3.95 nM; at VIM-1, 0.61 nM; on VIM-2 it was 3.68 nM. In series [1], the “CLB30016 E. coli MITC95 NDM” value worked out at 0.78 µM. In addition, the “IHMA599644 K. pneumoniae MITC95 VIM” value in series [2] worked out at 0.78 µM. Moreover, in [3], the “CL5741 S. marcescens MITC95 IMP” value turned out to be 1.56 µM. In addition, the “MB9798 MITC95 P. aeruginosa uM Efflux WT” value in series [4] was 0.78 µM. Besides, the Efflux ratio in [4] is listed as 2.00. Besides, the “MB9799 MITC95 P. aeruginosa uM Efflux Mutant” value in series [5] amounted to 0.39 µM.
In the case of `N[C@@H]1CCCN(c2ccc(S(=O)(=O)N[C@@H]3CCNC3)c(S(N)(=O)=O)c2-c2nnn[nH]2)C1` [Example 86, 4-[(3R)-3-aminopiperidin-1-yl]-N1-[(3R)-pyrrolidin-3-yl]-3-(1H-tetrazol-5-yl)benzene-1,2-disulfonamide], the IC50 came to 1.37 nM on NDM-1, 58.8 nM on IMP-1, 3.83 nM at VIM-1 and 14 nM on VIM-2. In addition, the “CLB30016 E. coli MITC95 NDM” value in [1] was 0.39 µM. For the same molecule, in series [2], the “IHMA599644 K. pneumoniae MITC95 VIM” value was 1.56 µM. In addition, the “CL5741 S. marcescens MITC95 IMP” value in [3] came out at 1.56 µM. Moreover, the “MB9798 MITC95 P. aeruginosa uM Efflux WT” value in series [4] turned out to be 12.50 µM. In [4], the Efflux ratio amounted to 8.00. Besides, the “MB9799 MITC95 P. aeruginosa uM Efflux Mutant” value in series [5] came to 1.56 µM.
Regarding `NCC1C2CCC1CN(c1ccc(S(=O)(=O)NC[C@H](O)CN)c(S(N)(=O)=O)c1-c1nn[nH]n1)C2` (stereo partly drawn) [Example 172, N1-((R)-3-amino-2-hydroxypropyl)-4-((1R,5S,8R)-8-(aminomethyl)-3-azabicyclo[3.2.1]octan-3-yl)-3-(2H-tetrazol-5-yl)benzene-1,2-disulfonamide], the 50% inhibitory concentration (IC50) against NDM-1 was 2.15 nM; at IMP-1 it was 3.49 nM; on VIM-1 it was 0.66 nM; on VIM-2, 3.78 nM. For the same molecule, in series [1], the “CLB30016 E. coli MITC95 NDM” value was 1.17 µM. Besides, the “IHMA599644 K. pneumoniae MITC95 VIM” value in series [2] is 2.34 µM. Also, in [3], the “CL5741 S. marcescens MITC95 IMP” value is 2.34 µM. For the same molecule, the “MB9798 MITC95 P. aeruginosa uM Efflux WT” value in series [4] is 1.17 µM. Besides, the Efflux ratio in [4] is 1.00. For the same molecule, the “MB9799 MITC95 P. aeruginosa uM Efflux Mutant” value in series [5] was 1.17 µM.
`NS(=O)(=O)c1c(S(=O)(=O)N[C@@H]2CCNC2)ccc(N2CC3(CCNCC3)C2)c1-c1nnn[nH]1` [Example 113, 4-(2,7-diazaspiro[3.5]non-2-yl)-N1-[(3R)-pyrrolidin-3-yl]-3-(1H-tetrazol-5-yl)benzene-1,2-disulfonamide]: the IC50 against NDM-1 was 13.7 nM; at IMP-1 it was 33.1 nM; on VIM-1 it was 0.81 nM; on VIM-2 it was 119 nM. Moreover, the “CLB30016 E. coli MITC95 NDM” value in [1] was determined as 0.78 µM. Moreover, in series [2], the “IHMA599644 K. pneumoniae MITC95 VIM” value was found to be 1.56 µM. In addition, the “CL5741 S. marcescens MITC95 IMP” value in series [3] worked out at 1.56 µM. Besides, in series [4], the “MB9798 MITC95 P. aeruginosa uM Efflux WT” value was 6.25 µM. Also, the Efflux ratio in [4] was found to be 8.00. Moreover, the “MB9799 MITC95 P. aeruginosa uM Efflux Mutant” value in [5] was 0.78 µM.
Take `NS(=O)(=O)c1c(S(=O)(=O)C2CNC2)ccc(N2C[C@H](O)C[C@@H](O)C2)c1-c1nnn[nH]1` [Example 55, 6-(azetidin-3-ylsulfonyl)-3-[(3R,5R)-3,5-dihydroxypiperidin-1-yl]-2-(1H-tetrazol-5-yl)benzenesulfonamide]: the half-maximal inhibitory concentration (IC50) amounted to 51.5 nM on NDM-1, 200 nM at IMP-1, 62.3 nM on VIM-1 and 145 nM at VIM-2. Moreover, the “CLB30016 E. coli MITC95 NDM” value in series [1] was found to be 1.56 µM. Further, the “IHMA599644 K. pneumoniae MITC95 VIM” value in series [2] was found to be 12.50 µM. The “CL5741 S. marcescens MITC95 IMP” value in series [3] was found to be 12.50 µM. The “MB9798 MITC95 P. aeruginosa uM Efflux WT” value in series [4] came to 100.00 µM. Also, in series [4], the Efflux ratio is 16.00. The “MB9799 MITC95 P. aeruginosa uM Efflux Mutant” value in series [5] is 6.25 µM.
Take `NC[C@H](N)CNS(=O)(=O)c1ccc(N2CCN(CCO)CC2)c(-c2nnn[nH]2)c1S(N)(=O)=O` [Example 49, (S)-N1-(2,3-diaminopropyl)-4-(4-(2-hydroxyethyl)piper-azin-1-yl)-3-(1H-tetrazol-5-yl)benzene-1,2-disulfonamide]: the 50% inhibitory concentration (IC50) on NDM-1 was 5.3 nM; on IMP-1, 9.13 nM; on VIM-1, 13.6 nM; at VIM-2, 20.2 nM. The “CLB30016 E. coli MITC95 NDM” value in [1] turned out to be 0.20 µM. The “IHMA599644 K. pneumoniae MITC95 VIM” value in [2] came to 1.56 µM. For the same molecule, the “CL5741 S. marcescens MITC95 IMP” value in series [3] was found to be 0.20 µM. For the same molecule, the “MB9798 MITC95 P. aeruginosa uM Efflux WT” value in series [4] turned out to be 1.56 µM. Besides, the Efflux ratio in series [4] was found to be 1.00. Besides, in [5], the “MB9799 MITC95 P. aeruginosa uM Efflux Mutant” value is 1.56 µM.
Consider `NCC1=CCN(c2ccc(S(=O)(=O)NC[C@H](O)CN)c(S(N)(=O)=O)c2-c2nn[nH]n2)CC1` [Example 175, (R)-N1-(3-amino-2-hydroxypropyl)-4-(4-(aminomethyl)-5,6-dihydropyridin-1(2H)-yl)-3-(2H-tetrazol-5-yl)benzene-1,2-disulfonamide], for which the IC50 was 2.55 nM at NDM-1, 3.66 nM on IMP-1, 0.24 nM on VIM-1 and 4.18 nM on VIM-2. Moreover, in series [1], the “CLB30016 E. coli MITC95 NDM” value came to 0.39 µM. Besides, the “IHMA599644 K. pneumoniae MITC95 VIM” value in series [2] was 1.56 µM. Further, the “CL5741 S. marcescens MITC95 IMP” value in series [3] was 0.78 µM. The “MB9798 MITC95 P. aeruginosa uM Efflux WT” value in [4] came to 1.56 µM. The Efflux ratio in series [4] is on record as 2.00. In series [5], the “MB9799 MITC95 P. aeruginosa uM Efflux Mutant” value was determined as 0.78 µM.
Turning to `N[C@@H]1CCN(c2ccc(S(=O)(=O)N[C@@H]3CCNC3)c(S(N)(=O)=O)c2-c2nn[nH]n2)C[C@@H]1F` [Example 198, 4-((3S,4R)-4-amino-3-fluoropiperidin-1-yl)-N1-((R)-pyrrolidin-3-yl)-3-(2H-tetrazol-5-yl)benzene-1,2-disulfonamide], the IC50 at NDM-1 turned out to be 1.82 nM; on IMP-1, 5.62 nM; at VIM-1 it was 0.2 nM; on VIM-2, 11 nM. In addition, the “CLB30016 E. coli MITC95 NDM” value in series [1] amounted to 0.39 µM. Besides, the “IHMA599644 K. pneumoniae MITC95 VIM” value in series [2] came to 0.39 µM. Moreover, the “CL5741 S. marcescens MITC95 IMP” value in series [3] was determined as 0.20 µM. Also, in series [4], the “MB9798 MITC95 P. aeruginosa uM Efflux WT” value was determined as 0.78 µM. Moreover, in [4], the Efflux ratio worked out at 1.00. For the same molecule, the “MB9799 MITC95 P. aeruginosa uM Efflux Mutant” value in series [5] was 0.78 µM.
As for `NS(=O)(=O)c1c(S(=O)(=O)N[C@@H]2CCNC2)ccc(N2CCOC(CCO)C2)c1-c1nnn[nH]1` (stereo partly drawn) [Example 105, 4-[2-(2-hydroxyethyl)morpholin-4-yl]-N1-[(3R)-pyrrolidin-3-yl]-3-(1H-tetrazol-5-yl)benzene-1,2-disulfonamide], the IC50 was 0.25 nM against NDM-1, 1.16 nM at IMP-1, 0.96 nM at VIM-1 and 1.79 nM at VIM-2. In addition, the “CLB30016 E. coli MITC95 NDM” value in series [1] was 6.25 µM. In addition, in series [2], the “IHMA599644 K. pneumoniae MITC95 VIM” value stood at 12.50 µM. Moreover, in series [3], the “CL5741 S. marcescens MITC95 IMP” value worked out at 6.25 µM. Moreover, the “MB9798 MITC95 P. aeruginosa uM Efflux WT” value in [4] amounted to 12.50 µM. Besides, in series [4], the Efflux ratio came out at 2.00. Also, the “MB9799 MITC95 P. aeruginosa uM Efflux Mutant” value in [5] was found to be 6.25 µM.
For the molecule `NS(=O)(=O)c1c(S(=O)(=O)N[C@@H]2CCNC2)ccc(N2CCCNC2=O)c1-c1nn[nH]n1` [Example 153, (R)-4-(2-oxotetrahydropyrimidin-1(2H)-yl)-N1-(pyrrolidin-3-yl)-3-(2H-tetrazol-5-yl)benzene-1,2-disulfonamide], the IC50 was found to be 0.21 nM at NDM-1, 7.23 nM at IMP-1, 0.2 nM at VIM-1 and 1.1 nM on VIM-2. The “CLB30016 E. coli MITC95 NDM” value in series [1] was found to be 0.78 µM. In addition, the “IHMA599644 K. pneumoniae MITC95 VIM” value in series [2] came out at 3.13 µM. Besides, the “CL5741 S. marcescens MITC95 IMP” value in series [3] worked out at 1.56 µM. For the same molecule, the “MB9798 MITC95 P. aeruginosa uM Efflux WT” value in [4] was 3.13 µM. For the same molecule, in series [4], the Efflux ratio was determined as 2.00. The “MB9799 MITC95 P. aeruginosa uM Efflux Mutant” value in [5] was found to be 1.56 µM.

The term IC50 denotes the midpoint of a concentration-inhibition curve.
